Tests used:
[1] = molecular target: human orexin-1 receptor (Homo sapiens (Human), UniProt O43613); assay: Intracellular calcium measurements (FLIPR), antagonism of orexin-A response; assay type: cell-based; settings: CHO cells expressing human orexin-1 receptor, 3 nM orexin-A, geometric mean if determined several times, read-out: IC50 OX1
Outline: (§1)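 CHO cells expressing human OX1 or OX2 receptor, loaded with fluo-4 AM plus probenecid, preincubated with antagonist 120 min before 3 nM orexin-A challenge. FLIPR calcium peak heights compared with agonist-plus-vehicle response. IC50 possibly normalized to on-plate reference; geometric mean of repeat determinations.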

[2] = molecular target: human orexin-2 receptor (Homo sapiens (Human), UniProt O43614); assay: as above; assay type: cell-based; settings: CHO cells expressing human orexin-2 receptor, 3 nM orexin-A, geometric mean if determined several times, read-out: IC50 OX2
Outline: as §1

human orexin-2 receptor, sequence (O43614 whole entry): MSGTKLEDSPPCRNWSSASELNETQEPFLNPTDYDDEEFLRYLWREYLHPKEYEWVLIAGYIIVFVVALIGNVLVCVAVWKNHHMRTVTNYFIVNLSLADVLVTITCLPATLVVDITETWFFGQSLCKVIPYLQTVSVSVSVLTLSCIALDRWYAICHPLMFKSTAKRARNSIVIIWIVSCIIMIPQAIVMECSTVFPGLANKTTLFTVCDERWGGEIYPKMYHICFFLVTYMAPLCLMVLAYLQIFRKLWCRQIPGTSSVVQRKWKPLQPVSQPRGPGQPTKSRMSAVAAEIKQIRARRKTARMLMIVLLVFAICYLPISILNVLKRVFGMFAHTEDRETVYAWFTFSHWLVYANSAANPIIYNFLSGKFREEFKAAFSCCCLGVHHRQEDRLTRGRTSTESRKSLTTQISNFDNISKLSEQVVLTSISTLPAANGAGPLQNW
human orexin-1 receptor, sequence (O43613 whole entry): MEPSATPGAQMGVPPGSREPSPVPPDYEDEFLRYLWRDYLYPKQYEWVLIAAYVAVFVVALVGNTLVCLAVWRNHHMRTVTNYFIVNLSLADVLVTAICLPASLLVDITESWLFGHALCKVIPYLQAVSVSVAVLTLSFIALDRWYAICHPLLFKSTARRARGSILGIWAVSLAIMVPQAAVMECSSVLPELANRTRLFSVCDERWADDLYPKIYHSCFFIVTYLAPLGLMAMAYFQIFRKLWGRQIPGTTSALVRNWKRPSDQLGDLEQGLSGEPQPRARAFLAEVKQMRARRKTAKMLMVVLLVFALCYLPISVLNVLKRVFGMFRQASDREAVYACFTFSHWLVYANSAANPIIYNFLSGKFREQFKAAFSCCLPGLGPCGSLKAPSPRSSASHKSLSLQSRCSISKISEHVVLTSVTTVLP

## Cc1c(Cl)cccc1-c1noc([C@@H]2CCN2C(=O)c2cc(Cl)ccc2-n2nccn2)n1 [Example 80, {(S)-2-[3-(3-Chloro-2-methyl-phenyl)-[1,2,4]oxadiazol-5-yl]-azetidin-1-yl}-(5-chloro-2-[1,2,3]triazol-2-yl-phenyl)-methanone]
[1]
  IC50: 756 nM
[2]
  IC50: 49 nM

## O=C(c1cc(Cl)ccc1-n1nccn1)N1CC[C@H]1c1nc(-c2ccccc2OC(F)(F)F)no1 [Example 81, (5-Chloro-2-[1,2,3]triazol-2-yl-phenyl)-{(S)-2-[3-(2-trifluoromethoxy-phenyl)-[1,2,4]oxadiazol-5-yl]-azetidin-1-yl}-methanone]
[1]
  IC50: 338 nM
[2]
  IC50: 47 nM

## Cc1cc(-n2nccn2)c(C(=O)N2CC[C@H]2c2nc(-c3cccc(Cl)c3C)no2)cc1Cl [Example 82, {(S)-2-[3-(3-Chloro-2-methyl-phenyl)-[1,2,4]oxadiazol-5-yl]-azetidin-1-yl}-(5-chloro-4-methyl-2-[1,2,3]triazol-2-yl-phenyl)-methanone]
[1]
  IC50: 171 nM
[2]
  IC50: 10 nM

## Cc1cc(-n2nccn2)c(C(=O)N2CC[C@H]2c2nc(-c3ccccc3OC(F)(F)F)no2)cc1Cl [Example 83, (5-Chloro-4-methyl-2-[1,2,3]triazol-2-yl-phenyl)-{(S)-2-[3-(2-trifluoromethoxy-phenyl)-[1,2,4]oxadiazol-5-yl]-azetidin-1-yl}-methanone]
[1]
  IC50: 167 nM
[2]
  IC50: 13 nM

## Cc1ccc(-n2nccn2)c(C(=O)N2CC[C@H]2c2noc(-c3ccccc3OC(F)(F)F)n2)c1 [Example 84, (5-Methyl-2-[1,2,3]triazol-2-yl-phenyl)-{(S)-2-[5-(2-trifluoromethoxy-phenyl)-[1,2,4]oxadiazol-3-yl]-azetidin-1-yl}-methanone]
[1]
  IC50: 103 nM
[2]
  IC50: 11 nM

## Cc1cc(C(=O)N2CC[C@H]2c2noc(-c3ccccc3OC(F)(F)F)n2)c(-n2nccn2)cc1C [Example 85, (4,5-Dimethyl-2-[1,2,3]triazol-2-yl-phenyl)-{(S)-2-[5-(2-trifluoromethoxy-phenyl)-[1,2,4]oxadiazol-3-yl]-azetidin-1-yl}-methanone]
[1]
  IC50: 34 nM
[2]
  IC50: 3 nM

## COc1cc(C(=O)N2CC[C@H]2c2noc(-c3ccccc3OC(F)(F)F)n2)c(-n2nccn2)cc1C [Example 86, (5-Methoxy-4-methyl-2-[1,2,3]triazol-2-yl-phenyl)-{(S)-2-[5-(2-trifluoromethoxy-phenyl)-[1,2,4]oxadiazol-3-yl]-azetidin-1-yl}-methanone]
[1]
  IC50: 193 nM
[2]
  IC50: 4 nM

## COc1cc(C(=O)N2CC[C@H]2c2noc(-c3ccccc3OC(F)(F)F)n2)c(-n2nccn2)cc1F [Example 87, (4-Fluoro-5-methoxy-2-[1,2,3]triazol-2-yl-phenyl)-{(S)-2-[5-(2-trifluoromethoxy-phenyl)-[1,2,4]oxadiazol-3-yl]-azetidin-1-yl}-methanone]
[1]
  IC50: 1340 nM
[2]
  IC50: 78 nM

## COc1cc(C(=O)N2CC[C@H]2c2noc(-c3cccc(F)c3OC)n2)c(-n2nccn2)cc1C [Example 88, {(S)-2-[5-(3-Fluoro-2-methoxy-phenyl)-[1,2,4]oxadiazol-3-yl]-azetidin-1-yl}-(5-methoxy-4-methyl-2-[1,2,3]triazol-2-yl-phenyl)-methanone]
[1]
  IC50: 178 nM
[2]
  IC50: 0.6 nM

## Cc1cc(C(=O)N2CC[C@H]2c2noc(-c3cccc(F)c3C)n2)c(-n2nccn2)cc1C [Example 89, (4,5-Dimethyl-2-[1,2,3]triazol-2-yl-phenyl)-{(S)-2-[5-(3-fluoro-2-methyl-phenyl)-[1,2,4]oxadiazol-3-yl]-azetidin-1-yl}-methanone]
[1]
  IC50: 82 nM
[2]
  IC50: 3 nM

## CCOc1ncccc1-c1nc([C@@H]2CCN2C(=O)c2cc(C)ccc2-n2nccn2)no1 [Example 90, {(S)-2-[5-(2-Ethoxy-pyridin-3-yl)-[1,2,4]oxadiazol-3-yl]-azetidin-1-yl}-(5-methyl-2-[1,2,3]triazol-2-yl-phenyl)-methanone]
[1]
  IC50: 52 nM
[2]
  IC50: 2 nM

## CCOc1ncccc1-c1nc([C@@H]2CCN2C(=O)c2cc(C)c(C)cc2-n2nccn2)no1 [Example 91, (4,5-Dimethyl-2-[1,2,3]triazol-2-yl-phenyl)-{(S)-2-[5-(2-ethoxy-pyridin-3-yl)-[1,2,4]oxadiazol-3-yl]-azetidin-1-yl}-methanone]
[1]
  IC50: 17 nM
[2]
  IC50: 0.6 nM

## CCOc1ncccc1-c1nc([C@@H]2CCN2C(=O)c2cc(OC)c(C)cc2-n2nccn2)no1 [Example 92, {(S)-2-[5-(2-Ethoxy-pyridin-3-yl)-[1,2,4]oxadiazol-3-yl]-azetidin-1-yl}-(5-methoxy-4-methyl-2-[1,2,3]triazol-2-yl-phenyl)-methanone]
[1]
  IC50: 37 nM
[2]
  IC50: 1 nM

## Cc1ccc(-n2nccn2)c(C(=O)N2CC[C@H]2c2noc(-c3cccc(F)c3C)n2)c1 [Example 93, {(S)-2-[5-(3-Fluoro-2-methyl-phenyl)-[1,2,4]oxadiazol-3-yl]-azetidin-1-yl}-(5-methyl-2-[1,2,3]triazol-2-yl-phenyl)-methanone]
[1]
  IC50: 655 nM
[2]
  IC50: 8 nM

## COc1cc(C(=O)N2CC[C@H]2c2noc(-c3ccccc3OC(F)(F)F)n2)c(-n2nccn2)cc1Cl [Example 94, (4-Chloro-5-methoxy-2-[1,2,3]triazol-2-yl-phenyl)-{(S)-2-[5-(2-trifluoromethoxy-phenyl)-[1,2,4]oxadiazol-3-yl]-azetidin-1-yl}-methanone]
[1]
  IC50: 326 nM
[2]
  IC50: 11 nM

## Cc1cc(-n2nccn2)c(C(=O)N2CC[C@H]2c2noc(-c3ccccc3OC(F)(F)F)n2)cc1Cl [Example 95, (5-Chloro-4-methyl-2-[1,2,3]triazol-2-yl-phenyl)-{(S)-2-[5-(2-trifluoromethoxy-phenyl)-[1,2,4]oxadiazol-3-yl]-azetidin-1-yl}-methanone]
[1]
  IC50: 60 nM
[2]
  IC50: 6 nM

## COc1cc(C(=O)N2CC[C@H]2c2noc(-c3cccc(F)c3C)n2)c(-n2nccn2)cc1Cl [Example 96, (4-Chloro-5-methoxy-2-[1,2,3]triazol-2-yl-phenyl)-{(S)-2-[5-(3-fluoro-2-methyl-phenyl)-[1,2,4]oxadiazol-3-yl]-azetidin-1-yl}-methanone]
[1]
  IC50: 306 nM
[2]
  IC50: 3 nM

## CCOc1ncccc1-c1nc([C@@H]2CCN2C(=O)c2ccc(C)cc2-n2nccn2)no1 [Example 97, {(S)-2-[5-(2-Ethoxy-pyridin-3-yl)-[1,2,4]oxadiazol-3-yl]-azetidin-1-yl}-(4-methyl-2-[1,2,3]triazol-2-yl-phenyl)-methanone]
[1]
  IC50: 257 nM
[2]
  IC50: 10 nM

## CCOc1ncccc1-c1nc([C@@H]2CCN2C(=O)c2cc(OC)c(Cl)cc2-n2nccn2)no1 [Example 98, (4-Chloro-5-methoxy-2-[1,2,3]triazol-2-yl-phenyl)-{(S)-2-[5-(2-ethoxy-pyridin-3-yl)-[1,2,4]oxadiazol-3-yl]-azetidin-1-yl}-methanone]
[1]
  IC50: 83 nM
[2]
  IC50: 1 nM

## CCOc1ncccc1-c1nc([C@@H]2CCN2C(=O)c2cc(Cl)c(C)cc2-n2nccn2)no1 [Example 99, (5-Chloro-4-methyl-2-[1,2,3]triazol-2-yl-phenyl)-{(S)-2-[5-(2-ethoxy-pyridin-3-yl)-[1,2,4]oxadiazol-3-yl]-azetidin-1-yl}-methanone]
[1]
  IC50: 20 nM
[2]
  IC50: 1 nM

## Cc1c(Cl)cccc1-c1nc([C@@H]2CCN2C(=O)c2ccccc2-n2nccn2)no1 [Example 100, {(S)-2-[5-(3-Chloro-2-methyl-phenyl)-[1,2,4]oxadiazol-3-yl]-azetidin-1-yl}-(2-[1,2,3]triazol-2-yl-phenyl)-methanone]
[1]
  IC50: 820 nM
[2]
  IC50: 34 nM

## Cc1ccc(-n2nccn2)c(C(=O)N2CC[C@H]2c2noc(-c3cccc(Cl)c3C)n2)c1 [Example 101, {(S)-2-[5-(3-Chloro-2-methyl-phenyl)-[1,2,4]oxadiazol-3-yl]-azetidin-1-yl}-(5-methyl-2-[1,2,3]triazol-2-yl-phenyl)-methanone]
[1]
  IC50: 88 nM
[2]
  IC50: 8 nM

## Cc1cc(C(=O)N2CC[C@H]2c2noc(-c3cccc(Cl)c3C)n2)c(-n2nccn2)cc1C [Example 102, {(S)-2-[5-(3-Chloro-2-methyl-phenyl)-[1,2,4]oxadiazol-3-yl]-azetidin-1-yl}-(4,5-dimethyl-2-[1,2,3]triazol-2-yl-phenyl)-methanone]
[1]
  IC50: 41 nM
[2]
  IC50: 2 nM

## COc1cc(C(=O)N2CC[C@H]2c2noc(-c3cccc(Cl)c3C)n2)c(-n2nccn2)cc1C [Example 103, {(S)-2-[5-(3-Chloro-2-methyl-phenyl)-[1,2,4]oxadiazol-3-yl]-azetidin-1-yl}-(5-methoxy-4-methyl-2-[1,2,3]triazol-2-yl-phenyl)-methanone]
[1]
  IC50: 59 nM
[2]
  IC50: 2 nM

## COc1cc(C(=O)N2CC[C@H]2c2noc(-c3cccc(Cl)c3C)n2)c(-n2nccn2)cc1Cl [Example 104, (4-Chloro-5-methoxy-2-[1,2,3]triazol-2-yl-phenyl)-{(S)-2-[5-(3-chloro-2-methyl-phenyl)-[1,2,4]oxadiazol-3-yl]-azetidin-1-yl}-methanone]
[1]
  IC50: 181 nM
[2]
  IC50: 2 nM

## Cc1cc(-n2nccn2)c(C(=O)N2CC[C@H]2c2noc(-c3cccc(Cl)c3C)n2)cc1Cl [Example 105, {(S)-2-[5-(3-Chloro-2-methyl-phenyl)-[1,2,4]oxadiazol-3-yl]-azetidin-1-yl}-(5-chloro-4-methyl-2-[1,2,3]triazol-2-yl-phenyl)-methanone]
[1]
  IC50: 122 nM
[2]
  IC50: 5 nM

## Cc1ccc(C(=O)N2CC[C@H]2c2noc(-c3cccc(Cl)c3C)n2)c(-n2nccn2)c1 [Example 106, {(S)-2-[5-(3-Chloro-2-methyl-phenyl)-[1,2,4]oxadiazol-3-yl]-azetidin-1-yl}-(4-methyl-2-[1,2,3]triazol-2-yl-phenyl)-methanone]
[1]
  IC50: 330 nM
[2]
  IC50: 9 nM
